Test results as given in ChEMBL document CHEMBL1158751, “Isoneocryptolepine, a synthetic indoloquinoline alkaloid, as an antiplasmodial lead compound” (J Nat Prod, 2005).
Where a name gives a salt, the structure may show the parent alone. One block for each molecule: values may come before it.

Key:
Mus musculus = assay: Toxicity in Plasmodium berghei ANKA S infected NMRI mice (Mus musculus) assessed as death at 50 mg/kg, intraperitoneally twice a day after day 1 post-infection; type: organism-based; set-up: dose 50 mg/kg, route intraperitoneal; settings: in vivo, ip
[1] = system: Trypanosoma brucei rhodesiense; assay: Antitrypanosomal activity against Trypanosoma brucei rhodesiense; type: functional, organism-based
Trypanosoma cruzi = assay: Antitrypanosomal activity against Trypanosoma cruzi; type: functional, organism-based
Leishmania donovani = assay: Antileishmanial activity against Leishmania donovani; type: functional, organism-based
L6 = assay: Cytotoxicity against rat L6 cells; type: cell-based
[2] = Selectivity index, IC50 for rat L6 cells to IC50 for chloroquine and pyrimethamine-resistant Plasmodium falciparum K1; type: functional
Plasmodium berghei = assay: Antiplasmodial activity against Plasmodium berghei ANKA S infected NMRI mice (Mus musculus) as reduced parasitaemia at 50 mg/kg subcutaneous dose for 4 days; type: functional; set-up: scale not given: the % may be the effect or the level left
Plasmodium falciparum = assay: microbe, parasite or virus in culture; settings: K1, 3 h
[3] = Displacement of methyl green dye from DNA

SMILES: Cn1c2ccccc2c2c[n+](C)c3ccccc3c21.[I-]
Activity (Mus musculus): Toxic
IC50 [1]: 0.37 µM
IC50 (Trypanosoma cruzi): 236 µM
IC50 (Leishmania donovani): 1.15 µM
IC50 (L6): 12.7 µM
Ratio IC50 [2]: >700
Activity (Plasmodium berghei): 38.9%
IC50 (Plasmodium falciparum): 0.017 µM

IC50 [1]: 96.4 µM
IC50 (Trypanosoma cruzi): 84.4 µM
IC50 (Leishmania donovani): > 65 µM
SMILES: Cn1c2c3ccccc3nc-2c(-n2c3ccccc3c3nc4ccccc4cc32)c2ccccc21
IC50 (L6): 165 µM

SMILES: C[C@@H]1CC[C@H]2[C@@H](C)C(=O)O[C@@H]3O[C@@]4(C)CC[C@@H]1[C@]32OO4 [ARTEMISININ]
IC50 (Plasmodium falciparum): 0.042 µg/mL

SMILES: O=C(Cn1ccnc1[N+](=O)[O-])NCc1ccccc1 [BENZNIDAZOLE]
IC50 (Trypanosoma cruzi): 1.5 µg/mL

SMILES: Cn1c2c3ccccc3nc-2c(-c2c3nc4ccccc4c-3n(C)c3ccccc23)c2ccccc21 [BISCRYPTOLEPINE]
IC50 [1]: 2.57 µM
IC50 (Trypanosoma cruzi): 3.48 µM
IC50 (Leishmania donovani): 8.93 µM
IC50 (L6): 13.6 µM
IC50 (Plasmodium falciparum): 0.27 µM

SMILES: CCN(CC)CCCC(C)Nc1ccnc2cc(Cl)ccc12 (centres undefined) [CHLOROQUINE]
Activity (Plasmodium berghei): 99.9%

IC50 [3]: 65 µM
SMILES: C[n+]1c2ccccc2cc2[n-]c3ccccc3c21 [CRYPTOLEPINE HYDROCHLORIDE]
IC50 (L6): 1.12 µM

IC50 [3]: 119 µM
SMILES: Cn1cc2c3ccccc3nc-2c2ccccc21 [ISOCRYPTOLEPINE HYDROCHLORIDE]
IC50 (L6): 1.19 µM

SMILES: C[n+]1cc2[nH]c3ccccc3c2c2ccccc21.[Cl-] [ISONEOCRYPTOLEPINE HYDROCHLORIDE]
IC50 [3]: 124 µM
IC50 (L6): 4.32 µM
Ratio IC50 [2]: 20
Activity (Plasmodium berghei): 10.3%

SMILES: Nc1nc(N)nc(Nc2ccc([As]3SCC(CO)S3)cc2)n1 (centres undefined) [MELARSOPROL]
IC50 [1]: 0.0038 µg/mL

IC50 (Leishmania donovani): 0.56 µg/mL
SMILES: CCCCCCCCCCCCCCCCOP(=O)([O-])OCC[N+](C)(C)C [MILTEFOSINE]

IC50 [3]: 93 µM
SMILES: Cn1c2nc3ccccc3c-2cc2ccccc21 [NEOCRYPTOLEPINE HYDROCHLORIDE]
IC50 (L6): 3.24 µM

SMILES: COc1cc([C@@H]2c3cc4c(cc3[C@H](O)[C@H]3COC(=O)[C@H]23)OCO4)cc(OC)c1OC [PODOFILOX]
IC50 (L6): 0.018 µg/mL

IC50 [3]: > 360 µM
SMILES: C=C[C@H]1CN2CC[C@H]1C[C@H]2[C@H](O)c1ccnc2ccc(OC)cc12 [QUININE]
